Experimental findings from US20110178104A1, “Anti-Heparin Compounds” (POLYMEDIX INC., priority 2010, published 2011) are described below.

In experiment [1] the test system is Unfractionated heparin. As to the kind of experiment: aPTT clotting assay, UFH 0.4 U/mL in plasma (Example 10). In kind it is biochemical. As to conditions: unfractionated heparin 0.4 U/mL in plasma; aPTT clotting. As for the experimental part:
aPTT clotting Assay: Unfractionated heparin was mixed with plasma at a final concentration of 0.4 U/mL (or concentration which increases aPTT time to between 120 and 300 seconds). […] The ACL Elite Hemostasis analyzer (Beckman Coulter™) was used to add aPTT reagent (HemosIL SynthASil) to supplemented plasma. Clotting was initiated by addition of CaCl2 and time to clot was recorded.

The test system of experiment [2] is enoxaparin. As to the kind of experiment: FXa amidolytic assay (Example 10), enoxaparin. As to conditions: read-out: Enox FXa EC50; enoxaparin 0.1 ug/ml; human antithrombin, bovine Factor Xa.
Experimental: (§1) Two μl of test agent are added (range between 0.01 and 23 ug/ml) and incubated for 5 minutes at 23° C. Bovine Factor Xa was added to a final concentration of 0.636 nkat/mL and incubated for a further 10 minutes at 23° C.
Experiment [3] deals with tinzaparin. As to the kind of experiment: FXa amidolytic assay (Example 10), tinzaparin. As to conditions: read-out: Tinzap FXa EC50; tinzaparin 0.1 ug/ml; human antithrombin, bovine Factor Xa.
Experimental: as §1
The subject of experiment [4] is fondaparinux. As to the kind of experiment: FXa amidolytic assay (Example 10), fondaparinux. The settings on record: read-out: Fondap FXa EC50; fondaparinux 0.02 μg/mL; human antithrombin, bovine Factor Xa.
Experimental: as §1

Some results are limits rather than exact numbers.

What is called EC50 is the concentration needed to bring the measured effect to its halfway point. For the molecule `COc1ccc(NC(=O)[C@H](C)NC(=O)c2cc(NC(=O)[C@H](CCCCN)NC(=O)c3cc(NC(=O)[C@H](CCCCN)NC(=O)c4cc(NC(=O)[C@@H](N)CCCCN)ccc4OC)ccc3OC)ccc2OC)cc1C(N)=O` [Compound 232], the half-maximal effective concentration (EC50) in experiment [1] was 3240 nM; in experiment [2] it was 862 nM; in experiment [3], 536 nM; in experiment [4], greater than 10000 nM.

As for `COc1cc(OC)c(C(=O)NCCCNC(=O)c2cc(C(=O)NCCCNC(=O)c3cc(C(=O)NCCN)c(OC)cc3OC)c(OC)cc2OC)cc1C(=O)NCCN` [Compound 391], the EC50 in experiment [1] was greater than 10000 nM; in experiment [2], greater than 5000 nM; in experiment [3] it was greater than 5000 nM; in experiment [4], greater than 10000 nM.

Take `COc1ccc(NC(=O)[C@H](CCCCN)NC(=O)c2cc(NC(=O)[C@H](CCCCN)NC(=O)c3cc(NC(=O)[C@H](CCCCN)NC(=O)c4cc(NC(=O)[C@@H](N)CCCCN)ccc4OC)ccc3OC)ccc2OC)cc1C(=O)N[C@@H](CCC(=O)O)C(=O)O` [Compound 276]: the EC50 in experiment [1] was found to be 2330 nM; in experiment [2] it was 625 nM; in experiment [3], 363 nM; in experiment [4] it was 5180 nM.

Take `COc1ccc(NC(=O)[C@H](CCCCN)NC(=O)c2cc(NC(=O)[C@@H](N)CCCCN)ccc2OC)cc1C(=O)N[C@@H](CCCCN)C(=O)Nc1ccc(OC)c(C(=O)N[C@@H](CCCCN)C(=O)Nc2ccc(SC)c(C(N)=O)c2)c1` [Compound 253]: the EC50 is 1660 nM in experiment [1], 1070 nM in experiment [2], 472 nM in experiment [3] and greater than 10000 nM in experiment [4].

On to `COc1ccc(NC(=O)[C@H](CCCCN)NC(=O)c2cc(NC(=O)[C@H](CCCNC(N)=O)NC(=O)c3cc(NC(=O)[C@H](CCCCN)NC(=O)c4cc(NC(=O)[C@@H](N)CCCCN)ccc4OC)ccc3OC)ccc2OC)cc1C(N)=O` [Compound 258], for which the EC50 in experiment [1] is 1520 nM; in experiment [2] it was 198 nM; in experiment [3] it was 132 nM; in experiment [4], 1540 nM.

With `COc1ccc(NC(=O)[C@@H](CCCNC(=N)N)NC(=O)c2cc(NC(=O)[C@@H](CCCNC(=N)N)NC(=O)c3cc(NC(=O)[C@@H](CCCNC(=N)N)NC(=O)c4cc(NC(C)=O)ccc4OC)ccc3OC)ccc2OC)cc1C(=O)N[C@@H](Cc1ccc(O)cc1)C(=O)O` [Compound 296], the 50% effective concentration (EC50) in experiment [1] turned out to be 15300 nM; in experiment [2], 286 nM; in experiment [3] it was 296 nM; in experiment [4] it was 437 nM.

Take `COc1ccc(NC(=O)[C@@H](CCCNC(=N)N)NC(=O)c2cc(NC(=O)[C@@H](CCCNC(=N)N)NC(=O)c3cc(NC(=O)[C@@H](CCCNC(=N)N)NC(=O)c4cc(NC(=O)[C@H](N)CCCNC(=N)N)ccc4OC)ccc3OCC(=O)O)ccc2OC)cc1C(N)=O` [Compound 282]: the 50% effective concentration (EC50) in experiment [1] worked out at 2000 nM; in experiment [2] it was 121 nM; in experiment [3], 114 nM; in experiment [4], 424 nM.

For the molecule `COc1ccc(NC(=O)[C@H](CCCCN)NC(=O)c2cc(NC(=O)[C@H](CCCCN)NC(=O)c3cc(NC(=O)[C@H](CCCCN)NC(=O)c4cc(NC(=O)[C@@H](N)CCC(=O)O)ccc4OC)ccc3OC)ccc2OC)cc1C(N)=O` [Compound 318], the concentration for a half-maximal effect (EC50) came out at 1410 nM in experiment [1], 407 nM in experiment [2], 261 nM in experiment [3] and 3050 nM in experiment [4].

Regarding `COc1ccc(NC(=O)[C@H](CCCNC(=N)N)NC(=O)c2cc(NC(=O)[C@H](CCCNC(=N)N)NC(=O)c3cc(NC(=O)[C@@H](N)CCCNC(=N)N)ccc3OC)ccc2OC)cc1C(=O)N[C@@H](CCCNC(=N)N)C(=O)Nc1ccc(OCC(=O)O)c(C(N)=O)c1` [Compound 286], the EC50 in experiment [1] was found to be 1900 nM; in experiment [2] it was 118 nM; in experiment [3], 104 nM; in experiment [4] it was 526 nM.

Take `COc1cc(OC)c(C(=O)N[C@H]2CC[C@@H](NC(=O)c3cc(C(N)=O)c(OCCCCCN)cc3OCCCCCN)CC2)cc1C(=O)N[C@H]1CC[C@@H](NC(=O)c2cc(C(N)=O)c(OCCCCCN)cc2OCCCCCN)CC1` [Compound 412]: the EC50 in experiment [1] was 687 nM; in experiment [2], 125 nM; in experiment [3], 113 nM; in experiment [4] it was 197 nM.

Turning to `COc1cc(OC)c(C(=O)N[C@H]2CC[C@@H](NC(=O)c3cc(C(=O)NCCN)c(OCCCCCN)cc3OCCCCCN)CC2)cc1C(=O)N[C@H]1CC[C@@H](N=C(N(C)C)N(C)C)CC1` [Compound 414], the EC50 was greater than 10000 nM in experiment [1], 3320 nM in experiment [2], 2060 nM in experiment [3] and greater than 10000 nM in experiment [4].

For the molecule `COc1ccc(NC(=O)[C@H](CCCNC(=N)N)NC(=O)c2cc(NC(=O)[C@H](CCC(=O)O)NC(=O)c3cc(NC(=O)[C@H](CCCNC(=N)N)NC(=O)c4cc(NC(=O)[C@@H](N)CCCNC(=N)N)ccc4OC)ccc3OC)ccc2OC)cc1C(N)=O` [Compound 324], the concentration giving a half-maximal response (EC50) in experiment [1] is 2930 nM; in experiment [2], 784 nM; in experiment [3] it was 438 nM; in experiment [4] it was 3840 nM.

For the molecule `COc1ccc(NC(=O)[C@H](CCCNC(=N)N)NC(=O)c2cc(NC(=O)[C@H](CCCNC(=N)N)NC(=O)c3cc(NC(=O)[C@H](CCCNC(=N)N)NC(=O)c4cc(NC(=O)[C@@H](N)CCCNC(=N)N)ccc4OC)ccc3OC)ccc2OC)cc1C(=O)NCCC(=O)O` [Compound 285], the half-maximal effective concentration (EC50) was found to be 2150 nM in experiment [1], 169 nM in experiment [2], 151 nM in experiment [3] and 799 nM in experiment [4].

In the case of `COc1ccc(NC(=O)[C@H](CCCNC(=N)N)NC(=O)c2cc(NC(=O)[C@H](CCCNC(=N)N)NC(=O)c3cc(NC(=O)[C@H](CCCNC(=N)N)NC(=O)c4cc(NC(=O)[C@@H](N)CCC(=O)O)ccc4OC)ccc3OC)ccc2OC)cc1C(N)=O` [Compound 326], the half-maximal effective concentration (EC50) worked out at 1990 nM in experiment [1], 289 nM in experiment [2], 234 nM in experiment [3] and 549 nM in experiment [4].

As for `COc1ccc(NC(=O)[C@H](CCCCN)NC(=O)c2cc(NC(=O)[C@H](CCCCN)NC(=O)c3cc(NC(=O)[C@H](CCCCN)NC(=O)c4cc(NC(=O)[C@H](CCCCN)NC(=O)CCCC(=O)O)ccc4OC)ccc3OC)ccc2OC)cc1C(N)=O` [Compound 344], the EC50 in experiment [1] came to 680 nM; in experiment [2], 392 nM; in experiment [3], 244 nM; in experiment [4], 2060 nM.

With `COc1ccc(NC(=O)[C@@H](CCCNC(=N)N)NC(=O)c2cc(NC(=O)[C@@H](CCCNC(=N)N)NC(=O)c3cc(NC(=O)[C@@H](CCCNC(=N)N)NC(=O)c4cc(NC(C)=O)ccc4OC)ccc3OC)ccc2OC)cc1C(=O)NCC(=O)O` [Compound 294], the 50% effective concentration (EC50) is 2740 nM in experiment [1], 264 nM in experiment [2], 264 nM in experiment [3] and 244 nM in experiment [4].

On to `COc1cc(OC)c(C(=O)N2CCC(CNC(=O)c3cc(C(=O)NCCN)c(OC)cc3OC)CC2)cc1C(=O)O` [Compound 396], for which the concentration for a half-maximal effect (EC50) in experiment [1] is greater than 10000 nM; in experiment [2] it was greater than 5000 nM; in experiment [3] it was greater than 5000 nM; in experiment [4], greater than 10000 nM.

For `COc1cc(OC)c(C(=O)N[C@H]2CC[C@@H](NC(=O)c3cc(C(=O)N[C@H]4CC[C@@H](N=C(N(C)C)N(C)C)CC4)c(OC)cc3OC)CC2)cc1C(=O)NC1CCNCC1` [Compound 418], the EC50 in experiment [1] was greater than 10000 nM; in experiment [2], greater than 5000 nM; in experiment [3], greater than 5000 nM; in experiment [4], greater than 10000 nM.

As to `COc1ccc(NC(=O)[C@H](CCCNC(N)=O)NC(=O)c2cc(NC(=O)[C@H](CCCCN)NC(=O)c3cc(NC(=O)[C@H](CCCCN)NC(=O)c4cc(NC(=O)[C@@H](N)CCCCN)ccc4OC)ccc3OC)ccc2OC)cc1C(N)=O` [Compound 259], the EC50 came to 1570 nM in experiment [1], 267 nM in experiment [2], 180 nM in experiment [3] and 2880 nM in experiment [4].

For `COc1ccc(NC(=O)[C@H](CCCCN)NC(=O)c2cc(NC(=O)[C@@H](N)CCCCN)ccc2OC)cc1C(=O)N[C@@H](CCCCN)C(=O)Nc1ccc(SC)c(C(=O)N[C@@H](CCCCN)C(=O)Nc2ccc(SC)c(C(N)=O)c2)c1` [Compound 268], the EC50 in experiment [1] is greater than 10000 nM; in experiment [2] it was greater than 5000 nM; in experiment [3] it was greater than 5000 nM; in experiment [4], greater than 10000 nM.

On to `COc1ccc(NC(=O)[C@H](CCCCN)NC(=O)c2cc(NC(=O)[C@H](CCCCN)NC(=O)c3cc(NC(=O)[C@H](CCCCN)NC(=O)c4cc(NC(=O)[C@@H](N)CCCCN)ccc4OC)ccc3OC)ccc2SC)cc1C(N)=O` [Compound 252], for which the 50% effective concentration (EC50) in experiment [1] is greater than 10000 nM; in experiment [2], greater than 5000 nM; in experiment [3], greater than 5000 nM; in experiment [4], greater than 10000 nM.

Regarding `COc1ccc(NC(=O)[C@H](CCC(=O)O)NC(=O)c2cc(NC(=O)[C@H](CCCCN)NC(=O)c3cc(NC(=O)[C@H](CCCCN)NC(=O)c4cc(NC(=O)[C@@H](N)CCCCN)ccc4OC)ccc3OC)ccc2OC)cc1C(N)=O` [Compound 315], the EC50 in experiment [1] is 2050 nM; in experiment [2], 1790 nM; in experiment [3], 492 nM; in experiment [4], greater than 10000 nM.

As for `COc1cc(OC)c(C(=O)N[C@H]2CC[C@@H](NC(=O)c3cc(C(=O)N4CCC(CN)CC4)c(OC)cc3OC)CC2)cc1C(=O)N[C@H]1CC[C@@H](NC(=O)c2cc(C(=O)N3CCC(CN)CC3)c(OC)cc2OC)CC1` [Compound 415], the concentration for a half-maximal effect (EC50) in experiment [1] is greater than 10000 nM; in experiment [2], greater than 5000 nM; in experiment [3], greater than 5000 nM; in experiment [4] it was greater than 10000 nM.

On to `COc1cc(OC)c(C(=O)N[C@H]2CC[C@@H](NC(=O)c3cc(C(=O)N4CCC(CN)CC4)c(OC)cc3OC)CC2)cc1C(=O)N[C@H]1CC[C@@H](N=C(N(C)C)N(C)C)CC1` [Compound 416], for which the EC50 was greater than 10000 nM in experiment [1], greater than 5000 nM in experiment [2], greater than 5000 nM in experiment [3] and greater than 10000 nM in experiment [4].
